Assay results published in patent US20250177351A1, “ISOINDOLINE COMPOSITIONS AND METHODS FOR TREATING NEURODEGENERATIVE DISEASE” (Cognition Therapeutics, Inc., priority 2022, published 2025).
“Also recorded” adds a separate entry of the source. Marks after values point to notes of the source that are not given here.

Tests used:
[1] = Phase 1 single ascending dose (SAD)/food-effect study: plasma pharmacokinetics; assay type: in vivo, human
Procedure: A Phase 1, two-part single and multiple ascending dose study was conducted in 7 and 4 cohorts of healthy human subjects respectively. […] In Part B, subjects were administered 280, 560, and 840 mg once daily for 14 days (8:2 A:P per cohort). An elderly cohort, age 65-75, was dosed at 560 mg once daily for 14 days (7:2 A:P). […] Cognitive testing was performed in the healthy elderly cohort at baseline and at Day 14 of treatment.
Part A was a single ascending dose cohort study in which healthy, young subjects (less than 65 years old) received one dose of study drug in the morning after an overnight fast. Cohort dosing started at 10 mg and increased to 30 mg, 90 mg, 180 mg, 450 mg, and 1120 mg in subsequent cohorts. Six drug-treated and two placebo-treated subjects were randomized in each cohort. A seventh cohort of six subjects each received a single 90 mg dose of drug 30 min. after a meal. Following completion of all safety assessments and blood draws for PK analyses, subjects were discharged on Day 3.
In Part A, blood draws for assessment of PK parameters occurred pre-dose and at 15, 30, 45, 60, and 90 minutes post dose as well as at 2, 3, 4, 8, 12, 24, 36, and 48 hours post dose. […] In Part B, blood samples for plasma PK analysis were taken on Day 1 at pre-dose and at 2 hours post-dose, on Day 3 at pre-dose and at 15, 30 and 45 minutes and 1, 2, 3, 4, 8, 12 and 24 hours post-dose, on Days 4, 6, 8 and 10 at pre-dose and at 1.5 hours post-dose and following the final dose on Day 14 at pre-dose and 15, 30 and 45 minutes and 1, 2, 4, 8, 12, 24, 36 and 48 hours post-dose.
This was assessed by analysis of variance (ANOVA) of log-transformed Cmax, AUC0-24, AUC0-48, and/or AUC0-inf, using a model with factors for treatment (fed status or age [young vs. elderly] status) and subject within sequence. Treatment mean differences and 90% confidence intervals of the log transformed PK parameters were back-transformed, to present the geometric least squares means ratios and 90% confidence limits.

[2] = Phase 1b/2a clinical trial (COG0102): safety, tolerability, exploratory cognitive outcomes; assay type: in vivo, human
Procedure: Safety and pharmacokinetics were primary objectives of the study, with changes in molecular biomarkers and cognitive outcomes identified as an exploratory objective.
Plasma and CSF protein expression were measured by LC/MSMS in samples drawn prior to dosing (Day 0) and at end of dosing (Day 28) and were compared within each patient and between dosing groups.
COG0102 clinical trial: This trial (ClinicalTrials.gov NCT02907567) was a randomized, double-blind, placebo-controlled clinical trial in mild to moderate Alzheimer's patients (MMSE 18-26) (See FIG. 1 for clinical trial design). The trial was conducted at six sites in Australia. Patients were randomized into placebo (n=5) or CT1812-treated groups: 90 mg (n=4), 280 mg (n=5) or 560 mg (n=5) and treated once daily for 28 days. Clinical chemistry was done at Sydpath (Sydney, AU). Pharmacokinetics were done at CPR Pharma Services (Adelaide, AU). Cerebrospinal fluid samples were taken at screening and day 21-28 of treatment and aliquoted. Plasma samples were taken at screening or Day 1 (one sample) and day 14-28, then spun down to separate plasma and aliquoted. One set of CSF samples was analyzed for Alzheimer's disease biomarkers; protein measurements (Aβ42, Aβ40, total tau, tau phosphorylated at threonine 181 (phosphorylated tau), NFL and neurogranin) were performed using commercially available ELISA assays from Fujirebio according to the manufacturer's instructions (INNOTEST β-AMYLOID(1-42), INNOTEST β-AMYLOID(1-40), INNOTEST hTau Ag, INNOTEST PHOSPHO-TAU(181P), Uman Diagnostics NFL assay). Neurogranin was measured with a sandwich ELISA method using antibodies Ng2 and Ng22 developed at the University of Gotteborg (Kvartsberg et al. 2015). Identical aliquots of CSF, and plasma were analyzed for protein expression changes via LC/MSMS at Caprion (see below).

[3] = target: T1, sigma-2 receptor complex (Mus musculus, UniProt Q8VD00); assay: Projected receptor occupancy from human CSF concentrations, based on mouse Alzheimer's disease models; assay type: in vivo
T1 construct: from tissue; host or cells: brain, in vivo (projection from human CSF concentrations; occupancy itself determined in transgenic mouse brain)
T1 sequence (Q8VD00 1-176): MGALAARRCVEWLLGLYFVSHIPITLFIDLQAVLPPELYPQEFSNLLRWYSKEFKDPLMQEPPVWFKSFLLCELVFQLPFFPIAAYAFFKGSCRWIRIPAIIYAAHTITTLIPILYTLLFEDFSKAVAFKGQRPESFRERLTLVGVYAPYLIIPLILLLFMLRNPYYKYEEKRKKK
Procedure: Horizontal lines indicate projected receptor occupancy based on concentration and receptor occupancy determined in pre-clinical mouse Alzheimer's disease models.
At the 840 mg dose, CSF levels reached those associated with 98% receptor occupancy.

[4] = Aged transgenic mouse models of AD; assay type: in vivo
[5] = system: CSF proteins; assay: CSF proteomics by tandem-mass tag mass spectrometry (TMT-MS), SPARC trial; assay type: in vivo, human
Description: A stringent filter was used to reduce noise. […] Samples were acquired from placebo and the drug and interventional cohort. Using biomarker differential-expression analysis, proteins that were differentially expressed between drug and placebo cohorts were identified (p<0.05).

[6] = AD patients, 28 days, 90 mg (as in Table 3)
[7] = AD patients, 28 days, 90 mg (n = 4)
[8] = AD patients, 28 days, 280 mg (as in Table 3)
[9] = AD patients, 28 days, 280 mg (n = 5)
[10] = AD patients, 28 days, 560 mg (as in Table 3)
[11] = AD patients, 28 days, 560 mg (n = 5)
[12] = AD patients treated at least 6 months, p<0.05

## CC(C)(C)Oc1cc(CCC(C)(C)N2Cc3ccc(S(C)(=O)=O)cc3C2)ccc1O [CT1812]
[1]; 90 mg
  exposure based on AUC, fed vs. fasted: no significant difference
[1]; SAD fasted 10 mg, Day 1, plasma, mean (n = 5)
  t1/2: 12.0^‡ hr
[1]; SAD fasted 450 mg (n = 6), plasma, mean
  t1/2: 12.2 h
[1]; SAD, 10 mg to 1120 mg
  increase of Cmax and AUC with dose: slightly greater than dose proportionally
[1]; single 90 mg oral dose
  AUC0-48h lower under fed vs fasted conditions (geometric least-squares mean): ~20%
  AUC0-inf lower under fed vs fasted conditions (geometric least-squares mean): ~20%
  Cmax lower under fed vs fasted conditions (geometric least-squares mean): approximately 40%
[2]; AD patients, 560 mg, 3 mild, resolved by end of study
  patients with lymphocytopenia: Four
[2]; AD patients, 560 mg, resolved by end of study, no increase in bilirubin
  ALT in one participant: ~4.7 ×ULN
[2]; AD patients, 90, 280 and 560 mg, 28 days
  tolerability: well tolerated with no drug-related significant adverse events reported; also recorded: generally safe and well tolerated at all doses
[2]; [6]
  Headache: 1 (25%) n (%)
  Lymphocytopenia: 0 (0%) n (%)
  Nausea: 0 (0%) n (%)
  Vomiting: 0 (0%) n (%)
[2]; [7]
  Mild TEAEs: 4 (100%) n (%)
  Moderate TEAEs: 0 (0%) n (%)
  SAEs: 0 (0%) n (%)
  Severe TEAEs: 0 (0%) n (%)
  TEAEs: 3 (75%) n (%)
[2]; [8]
  Headache: 0 (0%) n (%)
  Lymphocytopenia: 0 (0%) n (%)
  Nausea: 0 (0%) n (%)
  Vomiting: 0 (0%) n (%)
[2]; [9]
  Mild TEAEs: 3 (60%) n (%)
  Moderate TEAEs: 1 (20%) n (%)
  SAEs: 0 (0%) n (%)
  Severe TEAEs: 0 (0%) n (%)
  TEAEs: 4 (80%) n (%)
[2]; [10]
  Headache: 2 (40%) n (%)
  Lymphocytopenia: 3 (60%)* n (%)
  Nausea: 2 (40%) n (%)
  Vomiting: 2 (40%) n (%)
[2]; [11]
  Mild TEAEs: 5 (100%) n (%)
  Moderate TEAEs: 3 (60%) n (%)
  SAEs: 0 (0%) n (%)
  Severe TEAEs: 0 (0%) n (%)
  TEAEs: 5 (100%) n (%)
[3]; 560 mg dose, read-out: receptor occupancy in transgenic mouse brain associated with human CSF level
  receptor occupancy at 560 mg: 95%
[3]; 560 mg-840 mg dose range, 1.5 hr post-dose
  receptor occupancy in mouse brain equivalent to average human CSF concentrations: 97-98%
[3]; 840 mg dose, read-out: receptor occupancy associated with human CSF level
  receptor occupancy at 840 mg: 98%
[4]; aged transgenic mouse models of AD
  cognitive performance: restoring normal cognitive performance
[4]; chronic treatment of aged transgenic mice, efficacious doses, LC/MSMS
  inflammatory protein expression in CSF: significantly reduces
[5]; [12]
  CHI3L1 (YKL-40) in CSF vs placebo: significantly decreased
  CLU (clusterin) in CSF vs placebo: significantly decreased
  SMOC1 in CSF vs placebo: significantly decreased
[5]; N=18, p<0.05
  number of significantly abundant proteins in CSF, CT1812 vs placebo: 326
